The record followed here is ChEMBL document CHEMBL1121896, “Potential histamine H2-receptor blockers. 3- and 2-indole derivatives as immobile analogues of tautomeric forms of cimetidine” (J Med Chem, 1981).

The target of assay [1] is Histamine H2 receptor (Cavia porcellus) (UniProt P47747). In words: Competitive antagonism of compound at histamine H2 receptor compared to 4-methylhistamine induced chronotropic response in guinea pig atria; nonparallel shift in dose response curve. The note with it: filed as antagonist. It is filed as functional.
Chain of Histamine H2 receptor (Cavia porcellus) (P47747 whole entry): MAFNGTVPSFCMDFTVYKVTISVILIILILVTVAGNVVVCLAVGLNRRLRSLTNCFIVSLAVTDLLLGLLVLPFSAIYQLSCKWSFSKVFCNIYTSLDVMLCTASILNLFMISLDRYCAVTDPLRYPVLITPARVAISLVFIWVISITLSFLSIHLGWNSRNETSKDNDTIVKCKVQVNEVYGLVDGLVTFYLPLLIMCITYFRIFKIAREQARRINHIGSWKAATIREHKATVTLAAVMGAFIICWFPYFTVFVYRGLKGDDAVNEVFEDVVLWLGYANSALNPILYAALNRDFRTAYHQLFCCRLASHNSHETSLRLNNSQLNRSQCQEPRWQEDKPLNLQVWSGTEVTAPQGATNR
For assay [2] the target is unchanged. In words: Ratio of potency (3*10e-5M) to that of agonist for histamine H2 receptor, in an assay for guinea pig atria chronotropic response. It is filed as functional.
Assay [3] has the same target. In words: Competitive antagonism of compound at histamine H2 receptor compared to 4-methylhistamine induced chronotropic response in guinea pig atria; + Potency ratio greater than 1.0. The class given is functional.
Assay [4] has the same target. The assay can be described thus: Competitive antagonism of compound at histamine H2 receptor compared to 4-methylhistamine as effect on resting heart rate in guinea pig atria expressed as potency ratio; Inactive. It is filed as functional, tissue-based.
The target is the same in assay [5]. The assay can be described thus: Competitive antagonism of compound at histamine H2 receptor compared to 4-methylhistamine as effect on resting heart rate in guinea pig atria expressed as potency ratio; (Inactive). The class given is functional, tissue-based.
For assay [6] the target is unchanged. The assay can be described thus: Ratio of potency (3*10e-5M) to that of agonist for Histamine H2 receptor, in an assay for guinea pig atria chronotropic response. The class given is functional.
The target is the same in assay [7]. The assay can be described thus: Competitive antagonism of compound at histamine H2 receptor compared to 4-methylhistamine induced chronotropic response in guinea pig atria expressed as potency ratio; Not significantly greater than 1.0 (Inactive). It is filed as functional.

The source made the active and inactive calls. The calls are words filed in the database; no cut-off is given here. A value given as a limit tells only on which side of the number the result lay.

Regarding `CS/C(=N\CCSCc1cc2ccccc2[nH]1)NC#N`, in assay [1], the Antagonism result is listed as “Non-competitive antagonist”. In addition, in assay [2], the Potency ratio was 6.04.

In the case of `CS/C(=N\CCSCc1c[nH]c2ccccc12)NC#N`, the Antagonism in assay [3] is more than 1. Further, the Potency ratio in assay [2] is 2.56.

Turning to `C/N=C(\S)NCCSCc1cc2ccccc2[nH]1`, the Antagonism in assay [3] was more than 1. Besides, the Potency ratio in assay [2] was found to be 3.35.

As to `S=C(NCCSCc1cc2ccccc2[nH]1)Nc1ccccc1`, the Antagonism entry in assay [4] is “inactive”. Besides, the Potency ratio in assay [2] came out at 2.54.

In the case of `C/N=C(\NC#N)NCCSCc1cc2ccccc2[nH]1`, in assay [5], the Antagonism result was “inactive”. Also, the Potency ratio in assay [2] was 1.76.

Take `CN/C(=N\CCSCc1nc[nH]c1C)NC#N`: the Antagonism in assay [3] is more than 1. Further, the Potency ratio in assay [2] is 36.8.

As for `S=C(NCCSCc1c[nH]c2ccccc12)Nc1ccccc1`, the Potency ratio in assay [6] was 1.16. The Antagonism entry in assay [7] is “inactive”.

Consider `C/N=C(\S)NCCSCc1c[nH]c2ccccc12`, for which, in assay [2], the Potency ratio was 1.06. The Antagonism in assay [7] is more than 1.

Consider `C/N=C(\NC#N)NCCSCc1c[nH]c2ccccc12`, for which, in assay [2], the Potency ratio amounted to 0.84. Besides, the Antagonism result in assay [7] was “inactive”.
